Target: T1, F508delCFTR cell surface expression in CFBE41o-F508delCFTR-HRP cells (Homo sapiens, UniProt P13569, DEL508-508)
T1 construct: fused on or other part: Horseradish peroxidase (HRP) reporter inserted in the fourth exofacial (extracellular) loop of CFTR; expression is doxycycline-inducible
Assay: Cell Surface Expression-Horse Radish Peroxidase (CSE-HRP) Assay
Assay type: cell-based
Settings: for EC50: CFBE41o-F508delCFTR-HRP cells, 18-24 hours at 33° C., 8-point curve, highest concentration 20 μM; for Maximum % activity (%): maximum at any tested concentration, normalized to on-plate positive control (3 μM)
Text: Cell Surface Expression-Horse Radish Peroxidase (CSE-HRP) Assay:
A cellular assay for measuring the F508delCFTR cell surface expression after correction with test compounds was developed in human lung derived epithelial cell line (CFBE41o-) (Veit G et al, (2012) Mol Biol Cell. 23(21): 4188-4202). This was achieved by expressing the F508delCFTR mutation along with a horseradish peroxidase (HRP) in the fourth exofacial loop and then measuring the HRP activity using luminescence readout from these cells, CFBE41o-F508delCFTR-HRP, that were incubated overnight with the test corrector compounds. Briefly, for this primary assay, the CFBE41o-F508delCFTR-HRP cells were plated in 384-well plates (Greiner Bio-one; Cat 781080) at 4,000 cells/well along with 0.5 μg/mL doxycycline to induce the F508delCFTR-HRP expression and further incubated at 37° C., 5% CO2 for 72 hours. The test compounds were then added at the required concentrations and further incubated for 18-24 hours at 33° C. The highest concentration tested was 20 μM with an 8-point concentration response curve using a 3-fold dilution. Three replicate plates were run to determine one EC50. All plates contained negative controls (dimethyl sulfoxide, DMSO) and positive controls (3 μM of 3-[(2R,4R)-4-({[1-(2,2-difluoro-1,3-benzodioxol-5-yl)cyclopropyl]carbonyl}amino)-7-methoxy-3,4-dihydro-2H-chromen-2-yl]benzoic acid) as well as on-plate concentration response of the positive control. Post incubation, the plates were washed 5× times with Dulbecco's phosphate buffered saline (DPBS), followed by the addition of the HRP substrate, luminol (50 μL), and measuring the HRP activity using luminescence readout on EnVision® Multilabel Plate Reader (Perkin Elmer; product number 2104-0010). The raw counts from the experiment are analyzed using Accelrys® Assay Explorer v3.3.
Z′ greater than 0.5 was used as passing quality control criteria for the plates.
The Z′ is defined as: 1−[3*SDPositive Control+3*SDNegative Control/Absolute(MeanPositive Control−MeanNegative Control)] wherein “SD” is standard deviation.
The % activity measured at each of the 8 test concentrations of the test compound was normalized to the on-plate positive control using the following formula: % activity=[(test compound response DMSO response)/(positive control response DMSO response)]*100
The maximum % activity achieved for the test compound at any tested concentration is presented in Table 1 along with the EC50 calculated using the following general sigmoidal curve with variable Hill slope equation (described as Model 42 in the Accelrys® Assay Explorer v3.3 software): y=(a−d)/(1+(x/c)^b)+d
General sigmoidal curve with concentration, response, top, bottom, EC50 and Hill slope.
This model describes a sigmoidal curve with an adjustable baseline, a. The equation can be used to fit curves where response is either increasing or decreasing with respect to the independent variable, “x”.
“x” is a concentration of drug under test.
“a” is the maximum response, and “d” is the minimum response
“c” is the inflection point (EC50) for the curve. That is, “y” is halfway between the lower and upper asymptotes when x=c.
“b” is the slope-factor or Hill coefficient. The sign of b is positive when the response increases with increasing dose and is negative when the response decreases with increasing dose (inhibition).

T1 sequence (P13569 with tags, fused parts or gaps DEL508-508 limits assumed): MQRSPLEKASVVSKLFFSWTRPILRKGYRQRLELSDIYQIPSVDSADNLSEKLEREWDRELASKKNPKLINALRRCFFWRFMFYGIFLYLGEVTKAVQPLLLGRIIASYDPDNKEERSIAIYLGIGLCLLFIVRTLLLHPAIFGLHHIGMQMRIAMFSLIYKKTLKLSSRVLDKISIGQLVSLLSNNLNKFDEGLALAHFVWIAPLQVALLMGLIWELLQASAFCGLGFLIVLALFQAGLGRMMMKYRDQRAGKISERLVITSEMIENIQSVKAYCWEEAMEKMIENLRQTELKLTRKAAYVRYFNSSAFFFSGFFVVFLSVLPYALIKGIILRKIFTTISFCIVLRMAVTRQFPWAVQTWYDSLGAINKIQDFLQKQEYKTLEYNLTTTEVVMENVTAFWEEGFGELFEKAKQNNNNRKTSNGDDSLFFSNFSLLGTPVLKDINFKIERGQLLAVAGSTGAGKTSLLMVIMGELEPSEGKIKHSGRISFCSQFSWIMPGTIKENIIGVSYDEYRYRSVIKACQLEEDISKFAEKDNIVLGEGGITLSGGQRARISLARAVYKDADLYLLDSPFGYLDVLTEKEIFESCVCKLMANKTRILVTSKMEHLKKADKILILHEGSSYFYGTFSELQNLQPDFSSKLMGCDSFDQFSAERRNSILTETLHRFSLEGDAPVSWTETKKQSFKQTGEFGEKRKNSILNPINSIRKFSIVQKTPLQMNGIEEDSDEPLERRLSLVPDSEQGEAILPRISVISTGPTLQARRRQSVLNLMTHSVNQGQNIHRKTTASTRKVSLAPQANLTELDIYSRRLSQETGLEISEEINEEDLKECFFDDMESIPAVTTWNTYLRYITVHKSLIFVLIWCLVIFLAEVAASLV
T1 sequence (P13569 919-1480 limits assumed, stated change not applied): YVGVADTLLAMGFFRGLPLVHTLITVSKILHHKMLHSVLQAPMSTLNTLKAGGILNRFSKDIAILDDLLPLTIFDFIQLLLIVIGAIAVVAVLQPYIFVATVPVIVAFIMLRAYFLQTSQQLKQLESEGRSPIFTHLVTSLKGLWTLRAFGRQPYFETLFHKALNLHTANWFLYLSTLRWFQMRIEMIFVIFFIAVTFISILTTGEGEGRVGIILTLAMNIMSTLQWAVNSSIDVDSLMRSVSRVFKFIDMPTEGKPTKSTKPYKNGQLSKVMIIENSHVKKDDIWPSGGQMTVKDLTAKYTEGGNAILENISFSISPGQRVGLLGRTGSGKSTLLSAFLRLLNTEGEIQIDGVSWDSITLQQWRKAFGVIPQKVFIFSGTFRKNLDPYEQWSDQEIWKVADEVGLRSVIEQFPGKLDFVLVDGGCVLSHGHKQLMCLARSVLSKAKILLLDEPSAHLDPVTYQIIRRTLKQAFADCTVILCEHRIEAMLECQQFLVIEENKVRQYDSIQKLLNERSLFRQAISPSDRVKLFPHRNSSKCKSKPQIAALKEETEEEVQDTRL

## Cc1ccc(C(=O)O)cc1-c1cccc(NC(=O)[C@@]2(C)COc3cc4c(cc32)OC(F)(F)O4)n1 [Example 129, 3-(6-{[(7R)-2,2-difluoro-7-methyl-6,7-dihydro-2H-furo[2,3-f][1,3]benzodioxole-7-carbonyl]amino}pyridin-2-yl)-4-methylbenzoic acid]
  EC50: 2260 nM
  Maximum % activity (%): 129%

## Cc1ccc(NC(=O)[C@]2(C)COc3cc4c(cc32)OC(F)(F)O4)nc1-c1cccc(C(=O)O)c1 [Example 4, 3-(6-{[(7S)-2,2-difluoro-7-methyl-6,7-dihydro-2H-furo[2,3-f][1,3]benzodioxole-7-carbonyl]amino}-3-methylpyridin-2-yl)benzoic acid]
  EC50: > 20000 nM
  Maximum % activity (%): 12%

## COc1ccc2c(c1)O[C@@H](c1ccc(C(=O)N3CC(O)(CCO)C3)cn1)C[C@H]2NC(=O)[C@@]1(C)COc2cc3c(cc21)OC(F)(F)O3 [Example 239, (7R)-2,2-difluoro-N-[(2R,4R)-2-{5-[3-hydroxy-3-(2-hydroxyethyl)azetidine-1-carbonyl]pyridin-2-yl}-7-methoxy-3,4-dihydro-2H-1-benzopyran-4-yl]-7-methyl-6,7-dihydro-2H-furo[2,3-f][1,3]benzodioxole-7-carboxamide]
  EC50: 40 nM
  Maximum % activity (%): 111%

## C[C@]1(C(=O)N[C@@H]2C[C@H]([C@H]3CC[C@H](C(=O)N4CCC(F)(F)CC4)CC3)Oc3cc(OC(F)(F)F)ccc32)COc2cc3c(cc21)OC(F)(F)O3 [Example 270, (7R)—N-[(2R,4R)-2-[trans-4-(4,4-difluoropiperidine-1-carbonyl)cyclohexyl]-7-(trifluoromethoxy)-3,4-dihydro-2H-1-benzopyran-4-yl]-2,2-difluoro-7-methyl-6,7-dihydro-2H-furo[2,3-f][1,3]benzodioxole-7-carboxamide]
  EC50: 180 nM
  Maximum % activity (%): 229%

## CC(C)(CO)c1cc2cc(NC(=O)[C@]3(C)COc4cc5c(cc43)OC(F)(F)O5)c(F)cc2n1C[C@@H](O)CO [Example 138, (7S)—N-{1-[(2R)-2,3-dihydroxypropyl]-6-fluoro-2-(1-hydroxy-2-methylpropan-2-yl)-1H-indol-5-yl}-2,2-difluoro-7-methyl-6,7-dihydro-2H-furo[2,3-f][1,3]benzodioxole-7-carboxamide]
  EC50: 7650 nM
  Maximum % activity (%): 23%

## CC1(C)OC[C@@H](Cn2nc(-c3ccccc3)cc(NC(=O)C3(C)COc4cc5c(cc43)OC(F)(F)O5)c2=O)O1 (stereo partly drawn) [Example 24, N-(2-{[(4R)-2,2-dimethyl-1,3-dioxolan-4-yl]methyl}-3-oxo-6-phenyl-2,3-dihydropyridazin-4-yl)-2,2-difluoro-7-methyl-6,7-dihydro-2H-furo[2,3-f][1,3]benzodioxole-7-carboxamide]
  EC50: 1180 nM
  Maximum % activity (%): 70%

## C[C@]1(C(=O)Nc2cccc(-c3cc(C(=O)O)cs3)n2)COc2cc3c(cc21)OC(F)(F)O3 [Example 86, 5-(6-{[(7R)-2,2-difluoro-7-methyl-6,7-dihydro-2H-furo[2,3-f][1,3]benzodioxole-7-carbonyl]amino}pyridin-2-yl)thiophene-3-carboxylic acid]
  EC50: 2840 nM
  Maximum % activity (%): 112%

## C[C@]1(C(=O)Nc2cccc(N3CC[C@@H](S(C)(=O)=O)C3)n2)COc2cc3c(cc21)OC(F)(F)O3 [Example 111, (7R)-2,2-difluoro-N-{6-[(3R)-3-(methanesulfonyl)pyrrolidin-1-yl]pyridin-2-yl}-7-methyl-6,7-dihydro-2H-furo[2,3-f][1,3]benzodioxole-7-carboxamide]
  EC50: 540 nM
  Maximum % activity (%): 91%

## C[C@]1(C(=O)Nc2cccc(N3CC[C@@H](C(=O)O)C3)n2)COc2cc3c(cc21)OC(F)(F)O3 [Example 9, (3R)-1-(6-{[(7R)-2,2-difluoro-7-methyl-6,7-dihydro-2H-furo[2,3-f][1,3]benzodioxole-7-carbonyl]amino}pyridin-2-yl)pyrrolidine-3-carboxylic acid]
  EC50: 1030 nM
  Maximum % activity (%): 135%

## CCOC(=O)[C@H]1CC[C@H]([C@@H]2C[C@H](NC(=O)[C@@]3(C)COc4cc5c(cc43)OC(F)(F)O5)c3ccc(OC)cc3O2)CC1 [Example 152, ethyl trans-4-[(2S,4S)-4-{[(7R)-2,2-difluoro-7-methyl-6,7-dihydro-2H-furo[2,3-f][1,3]benzodioxole-7-carbonyl]amino}-7-methoxy-3,4-dihydro-2H-1-benzopyran-2-yl]cyclohexane-1-carboxylate]
  EC50: 806 nM
  Maximum % activity (%): 102%

## CN1CC2CN(c3cccc(NC(=O)C4(C)COc5cc6c(cc54)OC(F)(F)O6)n3)CC2C1 (stereo not shown) [Example 107, 2,2-difluoro-7-methyl-N-[6-(5-methylhexahydropyrrolo[3,4-c]pyrrol-2(1H)-yl)pyridin-2-yl]-6,7-dihydro-2H-furo[2,3-f][1,3]benzodioxole-7-carboxamide]
  EC50: 3040 nM
  Maximum % activity (%): 136%

## C[C@]1(C(=O)N[C@@H]2C[C@H]([C@H]3CC[C@H](C(=O)NC(CO)c4ccccc4)CC3)Oc3cc(OC(F)(F)F)ccc32)COc2cc3c(cc21)OC(F)(F)O3 (stereo partly drawn) [Example 269, (7R)-2,2-difluoro-N-[(2R,4R)-2-{trans-4-[(2-hydroxy-1-phenylethyl)carbamoyl]cyclohexyl}-7-(trifluoromethoxy)-3,4-dihydro-2H-1-benzopyran-4-yl]-7-methyl-6,7-dihydro-2H-furo[2,3-f][1,3]benzodioxole-7-carboxamide]
  EC50: 50 nM
  Maximum % activity (%): 192%

## COc1ccc2c(c1)O[C@@H](c1cccc(C(=O)O)c1)C[C@H]2NC(=O)[C@@]1(C)CCc2cc3c(cc21)OC(F)(F)O3 (single isomer, unassigned) [Example 57]
  EC50: 1770 nM
  Maximum % activity (%): 99%

## COc1ccc2c(c1)O[C@@H](c1ccc(C(=O)N3C[C@H](O)[C@@H](O)C3)cn1)C[C@H]2NC(=O)[C@@]1(C)COc2cc3c(cc21)OC(F)(F)O3 [Example 249, (7R)—N-[(2R,4R)-2-{5-[(3S,4S)-3,4-dihydroxypyrrolidine-1-carbonyl]pyridin-2-yl}-7-methoxy-3,4-dihydro-2H-1-benzopyran-4-yl]-2,2-difluoro-7-methyl-6,7-dihydro-2H-furo[2,3-f][1,3]benzodioxole-7-carboxamide]
  EC50: 100 nM
  Maximum % activity (%): 110%

## COc1ccc2c(c1)O[C@@H](c1ccc(C(=O)NC(C)CC(N)=O)cn1)C[C@H]2NC(=O)[C@@]1(C)COc2cc3c(cc21)OC(F)(F)O3 (stereo partly drawn) [Example 229, N-(4-amino-4-oxobutan-2-yl)-6-[(2R,4R)-4-{[(7R)-2,2-difluoro-7-methyl-6,7-dihydro-2H-furo[2,3-f][1,3]benzodioxole-7-carbonyl]amino}-7-methoxy-3,4-dihydro-2H-1-benzopyran-2-yl]pyridine-3-carboxamide]
  EC50: 110 nM
  Maximum % activity (%): 118%

## CC(C)(C)OC(=O)N[C@H]1CC[C@H]([C@H]2C[C@@H](NC(=O)[C@@]3(C)COc4cc5c(cc43)OC(F)(F)O5)c3ccc(OC(F)F)cc3O2)CC1 [Example 199, tert-butyl {trans-4-[(2R,4R)-7-(difluoromethoxy)-4-{[(7R)-2,2-difluoro-7-methyl-6,7-dihydro-2H-furo[2,3-f][1,3]benzodioxole-7-carbonyl]amino}-3,4-dihydro-2H-1-benzopyran-2-yl]cyclohexyl}carbamate]
  EC50: 210 nM
  Maximum % activity (%): 149%

## 1-(6-{[(7R)-2,2-difluoro-7-methyl-6,7-dihydro-2H-furo[2,3-f][1,3]benzodioxole-7-carbonyl]amino}pyridin-2-yl)-4,4-dimethylpyrrolidine-3-carboxylic acid [Example 115]
  EC50: 1000 nM
  Maximum % activity (%): 147%

— patent US9840513B2 (AbbVie S.à.r.l., priority 2015, dated 2017)
